Values after ≈ are worked out from the molar mass of the structure shown. Where a name gives a salt, the structure may show the parent alone.

The subject of series [1] is Staphylococcus aureus UC9213 or Streptococcus species. Put plainly: Antimicrobial activity in vivo, Murine Assay (mice infected intraperitoneally with bacteria; ED50 from survival over six days). Particulars: 144 h, female mice, treatment one hour and five hours after infection. As to the method: Antimicrobial activity was tested in vivo using the Murine Assay procedure. Groups of female mice (six mice of 18-20 grams each) were injected intraperitoneally with bacteria which were thawed just prior to use and suspended in brain heart infusion with 4% brewers yeast UC9213 (Staphylococcus aureus) or brain heart infusion (Streptococcus species). Antibiotic treatment at six dose levels per drug was administered one hour and five hours after infection by either oral intubation or subcutaneous ("subcut.") routes. Survival was observed daily for six days. ED50 values based on mortality ratios were calculated using probit analysis. The subject compounds were compared against a well-known antimicobial (Vancomycin) as a control.

The nature of series [2]: Aqueous solubility (pH 7, phosphate buffer). The format is physicochemical.

Consider `CC(=O)NC[C@H]1CN(c2ccc(N3CCN(C(=O)COC(=O)CCN4CCOCC4)CC3)c(F)c2)C(=O)O1` [Example 1, 3-(4-Morpholinyl)propionic acid, 2-(4-(4-(5-((acetylamino)methyl)-2-oxo-3-oxazolidinyl)-2-fluorophenyl)-1-piperazinyl)-2-oxoethyl ester, (S)], for which the ED50 in series [1] (oral) is 5 mg/kg; in series [1] (sc, subcut.), 4 mg/kg. This compound gave a solubility in series [2] of 36000 µg/mL (≈ 67.2 mM).

Regarding `CC(=O)NC[C@H]1CN(c2ccc(N3CCN(C(=O)COC(=O)c4cccnc4)CC3)c(F)c2)C(=O)O1` [Example 2, Nicotinic acid, 2-[4-[4-[5-[(acetylamino)methyl]-2-oxo-3-oxazolidinyl]-2-fluorophenyl]-1-piperazinyl]-2-oxoethyl ester, (S)-], the 50% effective dose (ED50) came out at 9 mg/kg in series [1] (oral) and 15 mg/kg in series [1] (sc, subcut.). Moreover, the solubility in series [2] amounted to 300 µg/mL (≈ 0.601 mM).

`CC(=O)NC[C@H]1CN(c2cc(F)c(N3CCN(C(=O)COC(=O)c4cccnc4)CC3)c(F)c2)C(=O)O1` [Example 3, Nicotinic acid, 2-[4-[4-[5-[(acetylamino)methyl]-2-oxo-3-oxazolidinyl]-2,6-difluorophenyl]-1-piperazinyl]-2-oxoethyl ester, (S)-6]: the ED50 came to 16 mg/kg in series [1] (oral) and 8 mg/kg in series [1] (sc, subcut.). The compound further showed a solubility in series [2] of 50 µg/mL (≈ 0.0966 mM).

With `CC(=O)NC[C@H]1CN(c2ccc(N3CCN(C(=O)COC(=O)n4ccnc4)CC3)c(F)c2)C(=O)O1` [Example 4, 1H-imidazole-1-carboxylic acid, 2-[4-[4-[5-[(acetylamino)methyl]-2-oxo-3-oxazolidinyl]-2-fluorophenyl]-1-piperazinyl]-2-oxoethyl ester, (S)-], the ED50 in series [1] (oral) worked out at 2 mg/kg; in series [1] (sc, subcut.), 2 mg/kg. Besides, the solubility in series [2] stood at 1400 µg/mL (≈ 2.87 mM).

On to `CC(=O)NC[C@H]1CN(c2cc(F)c(N3CCN(C(=O)COC(=O)n4ccnc4)CC3)c(F)c2)C(=O)O1` [Example 5, 1H-imidazole-1-carboxylic acid, 2-[4-[4-[5-[(acetylamino)methyl]-2-oxo-3-oxazolidinyl]-2,6-difluorophenyl]-1-piperazinyl]-2-oxoethyl ester, (S)-], for which the ED50 in series [1] (oral) was determined as 7 mg/kg; in series [1] (sc, subcut.), 5 mg/kg.

`COCCOC(=O)OCC(=O)N1CCN(c2ccc(N3C[C@H](CNC(C)=O)OC3=O)cc2F)CC1` [Example 6, Carbonic acid, 2-[4-[4-[5-[(acetylamino)methyl]-2-oxo-3-oxazolidinyl]-2-fluorophenyl]-1-piperazinyl]-2-oxoethyl ester-2-methoxyethyl ester, (S)]: the ED50 in series [1] (oral) is 2 mg/kg; in series [1] (sc, subcut.) it was 2 mg/kg. The same compound registered a solubility in series [2] of 2900 µg/mL (≈ 5.84 mM).

In the case of `CC(=O)NC[C@H]1CN(c2ccc(N3CCN(C(=O)COC(=O)c4ccc(N(C)C)cc4)CC3)c(F)c2)C(=O)O1` [Example 7, 4-dimethylaminobenzoic acid, 2-[4-[4-[5-[(acetylamino)methyl]-2-oxo-3-oxazolidinyl]-2-fluorophenyl]-1-piperazinyl]-2-oxoethyl ester, (S)-], the ED50 is more than 20 mg/kg in series [1] (oral) and 1 mg/kg in series [1] (sc, subcut.). The solubility in series [2] is 10 µg/mL (≈ 0.0185 mM).

As for `CC(=O)NC[C@H]1CN(c2cc(F)c(N3CCN(C(=O)COC(=O)c4ccc(N(C)C)cc4)CC3)c(F)c2)C(=O)O1` [Example 8, 4-dimethylaminobenzoic acid, 2-[4-[4-[5-[(acetylamino)methyl]-2-oxo-3-oxazolidinyl]-2,6-difluorophenyl]-1-piperazinyl]-2-oxoethyl ester, (S)-], the ED50 in series [1] (oral) stood at 10 mg/kg; in series [1] (sc, subcut.), 6 mg/kg. This compound yielded a solubility in series [2] of 10 µg/mL (≈ 0.0179 mM).

In the case of `CC(=O)NC[C@H]1CN(c2ccc(N3CCN(C(=O)COC(=O)CN(C)C)CC3)c(F)c2)C(=O)O1` [Example 9, Glycine, N,N-dimethyl-, 2-[4-[4-[5-[(acetylamino)methyl]-2-oxo-oxazolidinyl]-2-fluorophenyl]-1-piperazinyl]-2-oxoethyl ester, (S)-], the ED50 worked out at 2 mg/kg in series [1] (oral) and 3 mg/kg in series [1] (sc, subcut.). The amount in solution in series [2] (solubility) came to 150000 µg/mL (≈ 313 mM).

`CC(=O)NC[C@H]1CN(c2cc(F)c(N3CCN(C(=O)COC(=O)CN(C)C)CC3)c(F)c2)C(=O)O1` [Example 10, Glycine, N,N-dimethyl-, 2-[4-[4-[5-[(acetylamino)methyl]-2-oxo-3-oxazolidinyl]-2,6-difluorophenyl]-1-piperazinyl]-2-oxoethyl ester, (S)-]: the ED50 in series [1] (oral) came to 1 mg/kg; in series [1] (sc, subcut.), 2 mg/kg. Also, the solubility in series [2] was 4200 µg/mL (≈ 8.44 mM).

In the case of `CC(=O)NC[C@H]1CN(c2ccc(N3CCN(C(=O)COC(=O)CCN(C)C)CC3)c(F)c2)C(=O)O1` [Example 11, 3-(Dimethylamino)propanoic acid, 2-[4-[4-[5-[(acetylamino)methyl]-2-oxo-3-oxazolidinyl]-2-fluorophenyl]-1-piperazinyl]-2-oxoethyl ester, (S)-], the ED50 in series [1] (oral) worked out at 8 mg/kg; in series [1] (sc, subcut.), 8 mg/kg.

Take `CC(=O)NC[C@H]1CN(c2ccc(N3CCN(C(=O)COC(=O)CCCN(C)C)CC3)c(F)c2)C(=O)O1` [Example 12, 4-(Dimethylamino)butanoic acid, 2-[4-[4-[5-[(acetylamino)methyl]-2-oxo-3-oxazolidinyl]-2-fluorophenyl]-1-piperazinyl]-2-oxoethyl ester, (S)-]: the ED50 in series [1] (oral) was 12 mg/kg; in series [1] (sc, subcut.), more than 20 mg/kg. Moreover, in series [2], the solubility amounted to 34600 µg/mL (≈ 68.2 mM).

As to `CC(=O)NC[C@H]1CN(c2cc(F)c(N3CCN(C(=O)COC(=O)CCC(=O)O)CC3)c(F)c2)C(=O)O1` [Example 15, Succinic acid, 2-(4-(4-(5-((acetylamino)methyl)-2-oxo-3-oxazolidinyl)-2,6-difluorophenyl)-1-piperazinyl)-2-oxoethyl monoester, (S)], the solubility in series [2] was found to be 12300 µg/mL (≈ 24 mM).

Regarding `CC(=O)NC[C@H]1CN(c2cc(F)c(N3CCN(C(=O)COC(=O)CCC(=O)O)CC3)c(F)c2)C(=O)O1` [Example 16, Succinic acid, 2-(4-(4-(5-((acetylamino)methyl)-2-oxo-3-oxazolidinyl)-2,6-difluorophenyl)-1-piperazinyl)-2-oxoethyl monoester, sodium salt, (S)], in series [1] (oral), the 50% effect level (ED50) was put at a dose of 4 mg/kg.

In series [2], `CC(=O)CCC(=O)OCC(=O)N1CCN(c2ccc(N3C[C@H](CNC(C)=O)OC3=O)cc2F)CC1` [Example 19, 4-Oxo-valeric acid, 2-(4-(4-(5-((acetylamino)methyl)-2-oxo-3-oxazolidinyl)-2-fluorophenyl)-1-piperazinyl)-2-oxoethyl monoester, (S)] came in with a solubility of 2290 µg/mL (≈ 4.65 mM).

In series [1] (oral), `CC(=O)NC[C@H]1CN(c2cc(F)c(N3CCN(C(=O)COC(=O)CO)CC3)c(F)c2)C(=O)O1` [Example 24, Hydroxyacetic acid, 2-[4-[4-[5-[(acetylamino)methyl]-2-oxo-3-oxazolidinyl]-2,6-difluorophenyl]-1-piperazinyl]-2-oxoethyl ester,] displayed an ED50 of 1 mg/kg.

In turn, `CC(=O)NC[C@H]1CN(c2ccc(N3CCN(C(=O)COC(=O)c4ccc(NC(=O)CN(C)C)cc4)CC3)c(F)c2)C(=O)O1` [Example 28, 4-N-(N,N-dimethylglycinyl)aminobenzoic acid, 2-[4-[4-[5-[(acetylamino)methyl]-2-oxo-3-oxazolidinyl]-2-fluorophenyl]-1-piperazinyl]-2-oxoethyl ester, (S)-] showed a solubility in series [2] of 90 µg/mL (≈ 0.15 mM).

The ED50 is the midpoint of the dose-response relation. A low value points to an effect at a small dose. As usually defined, the solubility is the concentration that dissolves in the medium under given conditions. Higher therefore signals a readily soluble substance.

Source of the values: US5652238A, “Esters of substituted-hydroxyacetyl piperazine phenyl oxazolidinones” (Pharmacia & Upjohn Company, priority 1996, dated 1997).
